Data taken from US7420102B2, “Dwarfism genes and dwarf plants” (Wisconsin Alumni Research Foundation, priority 2002, dated 2008).

Columns and labels:
69 mutant plants = experiment: Rescue of mutant phenotype by external application of bioactive GA3, 69 line; assay type: in vivo, Arabidopsis
Text: (§1) These phenotypes are similar to loss-of-function alleles of GA biosynthetic enzymes. […] Additionally, other GA forms were also substantially lower in the L10 and 69 lines (Table 4). Both mutant phenotypes could be rescued by the external application of bioactive GA3, which is consistent with the notion that the phenotypes were a result of reduced levels of bioactive GAs.

L10 mutant plants = experiment: Rescue of mutant phenotype by external application of bioactive GA3, L10 line; assay type: in vivo, Arabidopsis
Text: as §1

C=C1C[C@]23C[C@@]1(O)CC[C@H]2[C@@]12C=C[C@H](O)[C@@](C)(C(=O)O1)[C@H]2[C@@H]3C(=O)O [GA3]
Flowering Time LD (Number of Leaves) (69 mutant plants; GA3-treated 69 plants): 8 Number of Leaves | Height (69 mutant plants; GA3-treated 69 plants): 30 cm | Internode Length (69 mutant plants; GA3-treated 69 plants): 7 mm | Number of Flowering Branches (69 mutant plants; GA3-treated 69 plants): 65 | Rescue of mutant phenotype (69 mutant plants; external application of GA3 to 69 mutant): rescued | Flowering Time LD (Number of Leaves) (L10 mutant plants; GA3-treated L10 plants): 8 Number of Leaves | Height (L10 mutant plants; GA3-treated L10 plants): 30 cm | Internode Length (L10 mutant plants; GA3-treated L10 plants): 7 mm | Number of Flowering Branches (L10 mutant plants; GA3-treated L10 plants): 65 | Rescue of mutant phenotype (L10 mutant plants; external application of GA3 to L10 mutant): rescued
